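GI50 marks 50% less growth. TGI denotes the concentration required for complete inhibition of growth.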
Key:
Assay in all cases: inhibition of tumour cell growth, NCI panel, 384-well format
[1] = system: 786-0 renal
[2] = system: A498 renal
[3] = system: A549 NSCLC
[4] = system: ACHN renal
[5] = system: BT-549 breast
[6] = system: CAKI-1 renal
[7] = system: CCRF-CEM leukemia
[8] = system: COLO 205 colon
[9] = system: DU-145 prostate
[10] = system: EKVX NSCLC
[11] = system: HCC-2998 colon
[12] = system: HCT-116 colon
[13] = system: HCT-15 colon
[14] = system: HL-60(TB) leukemia
[15] = system: HOP-62 NSCLC
[16] = system: HOP-92 NSCLC
[17] = system: HS 578T breast
[18] = system: HT29 colon
[19] = system: IGROV1 ovarian
[20] = system: K-562 leukemia
[21] = system: KM12 colon
[22] = system: LOX IMVI melanoma
[23] = system: M14 melanoma
[24] = system: MALME-3M melanoma
[25] = system: MCF7 breast
[26] = system: MDA-MB-231 breast
[27] = system: MDA-MB-435 melanoma
[28] = system: MDA-MB-468 breast
[29] = system: MOLT-4 leukemia
[30] = system: NCI-H226 lung
[31] = system: NCI-H23 lung
[32] = system: NCI-H322M lung
[33] = system: NCI-H460 NSCLC
[34] = system: NCI-H522 lung
[35] = system: NCI/ADR-RES ovarian
[36] = system: OVCAR-3 ovarian
[37] = system: OVCAR-4 ovarian
[38] = system: OVCAR-8 ovarian
[39] = system: PC-3 prostate
[40] = system: RPMI-8226 leukemia
[41] = system: RXF 393 renal
[42] = system: SF-268 CNS
[43] = system: SF-295 CNS
[44] = system: SF-539 CNS
[45] = system: SK-MEL-28 melanoma
[46] = system: SK-MEL-5 melanoma
[47] = system: SK-OV-3 ovarian
[48] = system: SN12C renal
[49] = system: SNB-19 CNS
[50] = system: SNB-75 CNS
[51] = system: SR leukemia
[52] = system: SW-620 colon
[53] = system: T-47D breast
[54] = system: TK-10 renal
[55] = system: U251 glioblastoma
[56] = system: UACC-257 melanoma
[57] = system: UACC-62 melanoma
[58] = system: UO-31 renal

Compound: CCS(=O)(=O)Nc1ccc(Oc2ccc(F)cc2F)c(-c2cn(C)c(=O)c3[nH]ccc23)c1
- GI50 [1]: < 10 nM
- TGI [1]: 2120 nM
- GI50 [2]: 21 nM
- TGI [2]: 3250 nM
- GI50 [3]: 34.6 nM
- TGI [3]: 10600 nM
- GI50 [4]: 59.7 nM
- TGI [4]: 10100 nM
- GI50 [5]: < 10 nM
- TGI [5]: 172 nM
- GI50 [6]: < 10 nM
- TGI [6]: 475 nM
- GI50 [7]: < 10 nM
- TGI [7]: 353 nM
- GI50 [8]: < 10 nM
- TGI [8]: 724 nM
- GI50 [9]: 174 nM
- TGI [9]: 12500 nM
- GI50 [10]: 397 nM
- TGI [10]: 8660 nM
- GI50 [11]: < 10 nM
- TGI [11]: 40.4 nM
- GI50 [12]: 11.2 nM
- TGI [12]: 1450 nM
- GI50 [13]: < 10 nM
- TGI [13]: 1050 nM
- GI50 [14]: < 10 nM
- TGI [14]: < 10 nM
- GI50 [15]: < 10 nM
- TGI [15]: 337 nM
- GI50 [16]: 10.9 nM
- TGI [16]: 1520 nM
- GI50 [17]: < 10 nM
- TGI [17]: 14.5 nM
- GI50 [18]: < 10 nM
- TGI [18]: 11000 nM
- GI50 [19]: < 10 nM
- TGI [19]: 196 nM
- GI50 [20]: < 10 nM
- TGI [20]: 1970 nM
- GI50 [21]: 10 nM
- TGI [21]: 1270 nM
- GI50 [22]: < 10 nM
- TGI [22]: 14.4 nM
- GI50 [23]: 12.7 nM
- TGI [23]: 10200 nM
- GI50 [24]: 11.5 nM
- TGI [24]: 779 nM
- GI50 [25]: < 10 nM
- TGI [25]: 1180 nM
- GI50 [26]: < 10 nM
- TGI [26]: 2850 nM
- GI50 [27]: 140 nM
- TGI [27]: 11500 nM
- GI50 [28]: 10.4 nM
- TGI [28]: 429 nM
- GI50 [29]: < 10 nM
- TGI [29]: 124 nM
- GI50 [30]: < 10 nM
- TGI [30]: 796 nM
- GI50 [31]: 10.5 nM
- TGI [31]: 237 nM
- GI50 [32]: < 10 nM
- TGI [32]: 1610 nM
- GI50 [33]: 30.5 nM
- TGI [33]: 2140 nM
- GI50 [34]: < 10 nM
- TGI [34]: 114 nM
- GI50 [35]: 82.6 nM
- TGI [35]: 1810 nM
- GI50 [36]: < 10 nM
- TGI [36]: 156 nM
- GI50 [37]: < 10 nM
- TGI [37]: 79.3 nM
- GI50 [38]: < 10 nM
- TGI [38]: 131 nM
- GI50 [39]: 22.3 nM
- TGI [39]: 10200 nM
- GI50 [40]: < 10 nM
- TGI [40]: < 10 nM
- GI50 [41]: 308 nM
- TGI [41]: 2490 nM
- GI50 [42]: 67.4 nM
- TGI [42]: 2740 nM
- GI50 [43]: 120 nM
- TGI [43]: 4140 nM
- GI50 [44]: 27.2 nM
- TGI [44]: 3200 nM
- GI50 [45]: 50.2 nM
- TGI [45]: 2090 nM
- GI50 [46]: < 10 nM
- TGI [46]: 876 nM
- GI50 [47]: < 10 nM
- TGI [47]: 504 nM
- GI50 [48]: 24.8 nM
- TGI [48]: 3290 nM
- GI50 [49]: 40.7 nM
- TGI [49]: 12100 nM
- GI50 [50]: 112 nM
- TGI [50]: 5400 nM
- GI50 [51]: < 10 nM
- TGI [51]: < 10 nM
- GI50 [52]: 174 nM
- TGI [52]: 1950 nM
- GI50 [53]: 24.6 nM
- TGI [53]: 1430 nM
- GI50 [54]: < 10 nM
- TGI [54]: 384 nM
- GI50 [55]: 57.1 nM
- TGI [55]: 1800 nM
- GI50 [56]: 12.8 nM
- TGI [56]: 1890 nM
- GI50 [57]: < 10 nM
- TGI [57]: 583 nM
- GI50 [58]: 38.2 nM
- TGI [58]: 10300 nM

— PubChem BioAssay (NCI)
